Measured values from US20230279346A1, “METHODS OF DIFFERENTIATION TO NEURONAL CELLS AND KITS THEREFOR” (priority 2016, published 2023).

How the values were obtained:
[1] = test system: H9 ESC-derived NSCs; experiment: Cell clump area after neuronal differentiation (INCUCYTE ZOOM System); type: cell-based, human; conditions: for cell clumping vs control group (cell clump area, FIG. 6): two weeks, Compound E 0.2, YO-01027 0.3, LY411575 0.25, MK-0752 20 micromolar, p<0.01
Method: Also, at the end of that two week period of differentiation, the area of cell clumps was calculated using the [sequence] ZOOM™ System (Essen BioScience, Ann Arbor Mich.) by defining the area of cell mass ≥10,000 μm^2 as a cell clump.
(§3) Cells cultured in differentiation medium without the presence of the gamma-secretase inhibitor served as a control. In the test groups, cells were separately differentiated in the presence of Compound E at 0.2 micromolar, YO-01027 at concentrations of 0.3 micromolar, 1.5 micromolar and 7.5 micromolar, LY411575 at concentrations of 0.01 micromolar, 0.05 micromolar, 0.25 micromolar, 0.5 micromolar, 1.0 micromolar and 2.0 micromolar, and MK-0752 at concentrations of 0.8 micromolar, 4 micromolar, 20 micromolar, 40 micromolar and at 80 micromolar. Eight wells were tested for each concentration of each inhibitor.
At the end of a two week period of differentiation, the area of cell clumps was calculated for each test well using the [sequence] ZOOM™ System (Essen BioScience, Ann Arbor Mich.) by defining the area of cell mass ≥10,000 μm2 as a cell clump and the data plotted in FIG. 6.

[2] = test system: H9 ESC-derived NSCs; experiment: Immunofluorescent image analysis: cells positive for HuC/D and negative for SOX1; type: cell-based, human
Description: as §3

[3] = test system: H9 ESC-derived NSCs; experiment: Cell toxicity during differentiation of NSCs; type: cell-based, human; conditions: 160 micromolar
Description: as §3
At the end of a two week period of differentiation, the area of cell clumps was calculated for each test well using the [sequence]

[4] = test system: H9 ESC-derived NSCs; experiment: EdU incorporation proliferation assay (CLICK-IT EdU); type: cell-based, human; conditions: Day 6 of differentiation, EdU 24 h; 0.2 micromolar
Method: (§1) Differentiation of H9 ESC-derived NSCs was the same as for Example 2. At Day 6 of differentiation, cells were incubated with the nucleoside thymidine analog EdU for 24 h. EdU is incorporated into DNA during active DNA synthesis with the result that proliferating cells become labeled. EdU positive cells were detected using the CLICK-IT™ EdU Alexa FLUOR™ 488 HCS Assay (Cat. No. C10350, Thermo Fisher Scientific, Waltham Mass.) according to the manufacturer's protocols. Cells were then fixed with 4% paraformaldehyde and stained with antibodies against the apoptotic cell death marker caspase 9 (polyclonal, Cat. No. PA5-16358, Thermo Fisher Scientific, Waltham Mass.) according to the manufacturer's protocol.

[5] = test system: H9 ESC-derived NSCs; experiment: Caspase 9 staining for apoptotic cell death; type: cell-based, human; conditions: six days of differentiation; 0.2 micromolar
Method: as §1

[6] = test system: NSC cultures; experiment: CYQUANT Direct Cell Proliferation Assay; type: cell-based
Method: The proliferation and electrophysiology of cells resulting from differentiation in the presence of Compound E were compared to NSC control cultures. NSC cultures were plated at 20,000 cells per well on Day 0.
The CYQUANT™ Direct Cell Proliferation Assay (Molecular Probes Cat. No. C35011, Eugene Oreg.) was used to provide quantitation of proliferation at Day 4 and Day 7 of culture.

[7] = test system: primary rat cortical neuronal cells; experiment: Differentiation of primary rat cortical neuronal cells, GFAP and HuC&D staining; type: cell-based; conditions: two weeks of differentiation
Description: Cryopreserved primary rat cortical neuronal cells (Cat. No. A1084001, Thermo Fisher Scientific, Waltham Mass.), which had been isolated from rodent embryonic brain, were thawed and plated on poly-D-lysine 96-well plates (Cat. No. 08-774-255, Thermo Fisher Scientific, Waltham Mass.) coated with laminin (Cat. No. 23017, Thermo Fisher Scientific, Waltham Mass.) at a density of 8×10^4 cells/cm2. The culture medium was neuronal differentiation medium containing NEUROBASAL™ Medium (Cat. No. 21103, Thermo Fisher Scientific, Waltham Mass.), 2% B27 Supplement (Cat. No. 17504, Thermo Fisher Scientific, Waltham Mass.), 1% GLUTAMAX™ Supplement (Cat. No. 35050, Thermo Fisher Scientific, Waltham Mass.) without or with gamma secretase inhibitor Compound E. Every 2-3 days, half spent medium was removed from each well of the culture plates and the same volume of fresh medium was added into each well. At two weeks of differentiation, cells were fixed with 4% paraformaldehyde and stained with antibodies against neuronal marker HuC&D and astroglial marker glial fibrillary acidic protein (GFAP).

[8] = test system: iPSC-derived NSCs; experiment: Differentiation of iPSC-derived NSCs, phase images and NESTIN/DCX staining; type: cell-based, human; conditions: 0.1 micromolar
Description: Human induced pluripotent stem cells were derived from human fibroblasts using the CYTOTUNE™-iPS 2.0 Sendai Reprogramming Kit (Cat. No. A16517, INVITROGEN™, a part of Thermo Fisher Scientific, Waltham Mass.) and were induced to neural stem cells (NSCs) using the xeno free version of the GIBCO™ PSC Neural Induction Medium (Cat. No. A1647801, Thermo Fisher Scientific, Waltham Mass.).
To differentiate the NSCs into neuronal cells, cryo-preserved iPSC-derived NSCs were recovered and NSC passage three cells were plated on a 24 well plate (Cat. No. 087721, Thermo Fisher Scientific, Waltham Mass.) coated with human laminin (Cat. No. L6274, Sigma-Aldrich, St. Louis Mo.) at a density of 1˜5×10^4 cells/cm2. The cultures were maintained in neuronal differentiation medium containing NEUROBASAL™ Medium (Cat. No. 21103, Thermo Fisher Scientific, Waltham Mass.), 2% B27 Xeno Free Supplement (Cat. No. A1486701, Thermo Fisher Scientific, Waltham Mass.), 200 micromolar ascorbic acid (Cat. No. A8960, Sigma-Aldrich, St. Louis Mo.) with or without the gamma-secretase inhibitor Compound E (0.1 micromolar, Cat. No. 565790, EMD Millipore, Billerica Mass.). Every 2-3 days, medium was replenished with respective medium.
[…] No. 48-1200, Thermo Fisher Scientific, Waltham Mass.) and the neural stem cell marker NESTIN (Monoclonal, Cat. No. 611658, BD Biosciences, Franklin Lakes N.J.) according to the manufacturers' protocols.

[9] = test system: H9 ESC-derived NSCs; experiment: Long-term maintenance of differentiated neuronal cells; type: cell-based, human; conditions: 0.2 micromolar; without inhibitor cells detached at three weeks
Description: (§2) To differentiate the NSCs into neuronal cells, cryo-preserved H9 ESC-derived NSCs were thawed and plated on poly-D-lysine 96-well plates (Cat. No. 08-774-255, Thermo Fisher Scientific, Waltham Mass.) coated with laminin (Cat. No. 23017, Thermo Fisher Scientific, Waltham Mass.) at a density of 5×10^4 cells/cm2. The cultures were maintained in the neuronal differentiation medium containing NEUROBASAL™ Medium (Cat. No. 21103, Thermo Fisher Scientific, Waltham Mass.), 2% B27 Supplement (Cat. No. 17504, Thermo Fisher Scientific, Waltham Mass.), 1% GLUTAMAX™ Supplement (Cat. No. 35050, Thermo Fisher Scientific, Waltham Mass.) and 200 micromolar ascorbic acid (Cat. No. A8960, Sigma-Aldrich, St. Louis Mo.) with or without the gamma-secretase inhibitor Compound E (0.2 micromolar, Cat. No. 565790, EMD Millipore, Billerica Mass.). Every 2-3 days, half spent medium was removed from each well of the culture plates and the same volume of fresh medium was added into each well.
For this study, the differentiation of H9 ESC-derived NSCs was the same as for Example 2. Without presence of the gamma secretase inhibitor during differentiation, neuronal cells detached from the culture plate at three weeks after differentiation as shown by the image of FIG. 7A. This effect may be due to the very high density of proliferated neural stem cells present. […]

[10] = test system: H9 human ESC-derived NSCs; experiment: Differentiation of H9 ESC-derived NSCs, phase-contrast images and MAP2/SOX1 staining; type: cell-based; conditions: Day 14; 0.2 micromolar
Description: as §2
At two weeks of NSC differentiation into neuronal cells, cells were fixed with 4% paraformaldehyde and stained with antibodies against neuronal marker MAP2 (polyclonal, Cat. No. PA5-17646, Thermo Fisher Scientific, Waltham Mass.) and neural stem cell marker SOX1 (polyclonal, Cat. No. AF3369, R&D Systems, Minneapolis Minn.) according to the manufacturers' protocols.

In the case of `O=C(O)CC[C@H]1CC[C@@](c2cc(F)ccc2F)(S(=O)(=O)c2ccc(Cl)cc2)CC1` [MK-0752], the “cell clumping vs control group (cell clump area, FIG. 6)” value (shortened to “cell clumping vs control group”) [1] is reported as “significant reduction in cell clumping”, the “percentage of cells co-stained positive for HuC/D and negative for SOX1” value (“percentage of cells co-stained positive” below) ([2]; at 20 micromolar) is reported as 64.7% and the cell toxicity [3] is reported as “cell toxicity”.

In the case of `C[C@H](NC(=O)Cc1cc(F)cc(F)c1)C(=O)N[C@H]1N=C(c2ccccc2)c2ccccc2N(C)C1=O` [YO-01027, (S,S)-2-[2-(3,5-difluorophenyl)-acetylamino]-N-(1-methyl-2-oxo-5-phenyl-2-,3-dihydro-1H-benzo[e][1,4]diazepin-3-yl)-propionamide], the “percentage of cells co-stained positive” value ([2]; at 0.3 micromolar) is reported as 73.4%.

In the case of `C[C@H](NC(=O)Cc1cc(F)cc(F)c1)C(=O)N[C@H]1N=C(c2ccccc2)c2ccccc2N(C)C1=O` [Compound E, (S,S)-2-[2-(3,5-difluorophenyl)-acetylamino]-N-(1-methyl-2-oxo-5-phenyl-2-,3-dihydro-1H-benzo[e][1,4]diazepin-3-yl)-propionamide], the “reduction in cell clumping” value ([1]; Compound E 0.2 micromolar, two weeks of differentiation, cell mass >=10,000 μm2 counted as clump, vs without inhibitor) is reported as 90%, the “cell clumping vs control group” value [1] is reported as “significant reduction in cell clumping” and the “percentage of cells co-stained positive” value ([2]; at 0.2 micromolar) is reported as 74.9%. The “proliferation of neural stem cells (EdU positive cells)” value [4] was “substantially arrested”, the “cell death (caspase 9 positive cells)” value [5] was “no significant amount of cell death” and the “reduction in cell count vs control culture” value ([6]; Day 4) was roughly 2.5 fold. For the same compound, the “relative fluorescence units (cell proliferation)” value (from here on “relative fluorescence units”) ([6]; Day 4, control 0.93) was 0.36 RFU, the “relative fluorescence units” value ([6]; Day 7, control 2.94) was 0.55 RFU and the “increase in RFU at Day 7 compared to Day 4” value ([6]; Day 7 vs Day 4) was roughly 1.5 fold. The “relative fluorescence units” value ([6]; Day 14, control 18.7) was 0.41 RFU, the “relative fluorescence units” value ([6]; Day 21, control 21.5) was 0.30 RFU and the GFAP positive astrocytes [7] was “essentially eliminated”. For the same compound, the “neurite outgrowth (phase-contrast)” value ([8]; Day 5) was “extended neurite outgrowth”, the “neuronal phenotype (DCX stain)” value ([8]; Day 7) was “most of the cells present have adopted a neuronal phenotype” and the “proliferation of NESTIN positive cells” value ([8]; Day 7) was “substantially retarded”. For the same compound, the proliferating progenitor cells ([8]; Day 14) was “fewer proliferating progenitor cells are present”, the “time differentiated neuronal cells can be maintained in culture” value [9] was “at least five weeks” and the “cell clump formation (phase-contrast image)” value [10] was “without formation of cell clumps”.

In the case of `C[C@H](NC(=O)[C@@H](O)c1cc(F)cc(F)c1)C(=O)N[C@@H]1C(=O)N(C)c2ccccc2-c2ccccc21` [LY411575, N-2((2S)-2-(3,5-difluorophenyl)-2-hydroxyethanoyl)-N1-((7S)-5-methyl-6-oxo-6,7-dihydro-5H-dibenzo[b,d]azepin-7-yl)-1-alaninamide], the “cell clumping vs control group” value [1] is reported as “significant reduction in cell clumping” and the “percentage of cells co-stained positive” value ([2]; at 0.25 micromolar) is reported as 64.7%.
